Tests used:
[1] = tested on: tumor; settings: nude mice; cited from earlier work
[2] = tested on: cancer cell; settings: in vitro; cited from earlier work
[3] = tested on: p56/p53^lyn; assay: p56/p53^lyn activity in U-937 myeloid leukemia cells; format: cell-based
[4] = tested on: p34^cdc2; assay: Anti-cdc2 immunoprecipitates assayed for phosphorylation of H1 histone; format: cell-based; settings: MMC-treated cells
[5] = tested on: p59^fyn; assay: Anti-Fyn immune complex autophosphorylation assay from MMC-treated HL-60 cells; format: cell-based, human; settings: 10^−5 M MMC, 1 h
[6] = tested on: p56/p53^lyn; assay: Phosphorylation of cdc2 peptides by anti-Lyn immune complexes; format: cell-based, human; settings: HL-60 cells, MMC 1 h
Protocol: Immune complexes were also resuspended in […] kinase buffer containing 1 mCi/ml [γ-^32P]ATP and either 100 mM cdc2 peptide (amino acids 7 to 20; […]; SEQ ID NO:1) or 100 mM mutated cdc2 peptide with Phe-15 substituted for Tyr-15 ([…]; SEQ ID NO:2). The reactions were incubated for 15 min at 30° C. and terminated by spotting on P81 phosphocellulose discs (GIBCO/BRL). The discs were washed twice with 1% phosphoric acid and twice with water before analysis by liquid scintillation counting.

[7] = tested on: p56/p53^lyn; assay: Anti-Lyn immune complex kinase assay (autophosphorylation and enolase phosphorylation) from drug-treated HL-60 cells; format: cell-based, human; settings: for effect of pretreatment on MMC-stimulated p56/p53^lyn activity: 10^−5 M inhibitor 1 h, then MMC 1 h
[8] = tested on: p56/p53^lyn and p34^cdc2; assay: Association of p56/p53^lyn with p34^cdc2 (GST-Lyn binding, coimmunoprecipitation); format: cell-based, human; settings: HL-60 cells, 10^−5 M MMC, 1 h
Protocol: Coimmunoprecipitation. Immunoprecipitations were performed with anti-p34^cdc2 at 5 mg/ml cell lysate. Immune complexes were collected on protein A-Sepharose beads (Pharmacia), washed three times with lysis buffer and twice with kinase buffer, resuspended in kinase buffer and then incubated for 10 min at 30° C. in the presence of 1 mCi/ml [γ-^32P]ATP. One aliquot of the kinase reaction was subjected to SDS-PAGE and autoradiography. The other aliquot was washed in lysis buffer to remove free ATP and then boiled in 20 mM Tris-HCl, pH 8.0 containing 0.5% SDS and 1 mM DTT to disrupt protein-protein interaction. After dilution to 0.1% SDS, a secondary immunoprecipitation was then performed by adding anti-Lyn antibody and protein A-Sepharose beads. The anti-Lyn immunoprecipitates were then subjected to SDS-PAGE and autoradiography.
Fusion protein binding assays. The plasmid encoding a glutathione S-transferase (GST)-Lyn (amino acids 1 to 243) fusion protein was obtained from T. Pawson, Toronto, Canada and transfected into E. coli DH5a (Pleiman et al., 1993). The fusion protein was induced with IPTG, purified by affinity chromatography using glutathione-Sepharose beads (Pharmacia) and equilibrated in lysis buffer. HL-60 cell lysates were incubated with 50 mg immobilized GST or GST-Lyn for 2 h at 4° C. […]

[9] = tested on: p34^cdc2; assay: Immunoprecipitation of p34^cdc2 and immunoblotting with anti-P-Tyr / anti-cdc2; format: cell-based, human; settings: HL-60 cells, MMC 1 h
Protocol: (§1) Immunoblot analysis. Immune complexes bound to protein A-sepharose were prepared as for the autophosphorylation assays. Proteins were separated in 10% SDS-polyacrylamide gels and transferred to nitrocellulose paper. The residual binding sites were blocked by incubating the filters in 5% dry milk in PBST (PBS/0.05% Tween-20) for 1 h at room temperature. The blots were subsequently incubated with anti-cdc2 or anti-phosphotyrosine (anti-P-Tyr; MAb 4G10, UBI). After washing twice with PBST, the filters were incubated for 1 h at room temperature with anti-mouse IgG (whole molecule) peroxidase conjugate (Sigma) in 5% milk/PBST. The filters were then washed and the antigen-antibody complexes visualized by the ECL detection system (Amersham, Arlington Heights, Ill.).

[10] = tested on: p56/p53^lyn; assay: Immunoblot of anti-Lyn immunoprecipitates (anti-Lyn, anti-P-Tyr); format: cell-based, human; settings: HL-60 cells, MMC 1 h versus control
Protocol: as §1

[11] = tested on: p56/p53^lyn; assay: MMC added directly to the kinase reaction of anti-Lyn immune complexes from untreated HL-60 cells; format: biochemical, human; settings: 10^−5 M MMC added to kinase reaction, 15 min
Protocol: FIG. 4A, FIG. 4B and FIG. 4C. MMC-induced p56/p53^lyn activation is sensitive to tyrosine kinase inhibitors and is not a direct effect. […] Anti-Lyn immunoprecipitates were analyzed for phosphorylation of p56/p53^lyn and enolase. […] Lysates from untreated HL-60 cells were immunoprecipitated with anti-Lyn. […] The reaction was analyzed for phosphorylation of p56/p53^lyn and enolase.
The supernatant fraction was incubated with pre-immune rabbit serum, anti-Fyn, anti-Lyn, anti-Src (UBI, Lake Placid, N.Y.) or anti-cdc2 (sc-54, Santa Cruz Biotechnology, Santa Cruz, Calif.) antibodies for 1 h at 4° C. followed by 30 min after addition of protein A-sepharose. The immune complexes were washed three times with lysis buffer and once with kinase buffer (20 mM HEPES, pH 7.0, 10 mM MnCl2 and 10 mM MgCl2) and resuspended in […] of kinase buffer containing 1 mCi/ml [γ-^32P]ATP (3000 Ci/mmol; NEN, Boston, Mass.) with and without 5-8 mg of acid-treated enolase (Sigma). The reaction was incubated for 15 min at 30° C. and terminated by the addition of 2× SDS sample buffer. The proteins were separated in 10% SDS-polyacrylamide gels and analyzed by autoradiography. Radioactive bands were excised from certain gels and quantitated by scintillation counting.

[12] = tested on: pp60^c-src; assay: Anti-Src immune complex kinase assay from MMC-treated HL-60 cells; format: cell-based, human; settings: 10^−5 M MMC, 1 h
[13] = tested on: pancreatic cancer cell; settings: in vitro; cited from earlier work
[14] = tested on: protein-tyrosine kinase; settings: compared with erbstatin; cited from earlier work
[15] = tested on: p56/p53^lyn; assay: Anti-Lyn immune complex kinase assay from irradiated (200 cGy) or H2O2-treated HL-60 cells; format: cell-based, human; settings: for effect on X-ray-induced p56/p53^lyn activity: HL-60 cells, 200 cGy, harvested at 12 hours
Protocol: HL-60 myeloid leukemia cells were grown in RPMI-1640 medium containing 15% heat-inactivated fetal bovine serum (FBS) supplemented with 100 units/ml penicillin, […], 2 mM L-glutamine, 1 mM sodium pyruvate and 1 mM non-essential amino acids. Cells in logarithmic growth phase were suspended in complete RPMI-1640 medium with 0.5% FBS 18 hours prior to irradiation.
Irradiation was performed at room temperature using a Gammacell 1000 (Atomic Energy of Canada, Ottawa) under aerobic conditions with a ^137Cs source emitting at a fixed dose rate of 13.3 Gy/min as determined by dosimetry.
Cells (2−3×10^7) were washed twice with ice cold phosphate buffered saline (PBS) and lysed in 2 ml of lysis buffer (20 mM Tris, pH 7.4, 150 mM NaCl, 1% NP-40, 1 mM sodium vanadate, 1 mM phenylmethylsulfonyl fluoride, 1 mM DTT, and […] of leupeptin and aprotinin). After incubation on ice for 30 min, insoluble material was removed by centrifugation at 1400 rpm for 10 min at 4° C. Soluble proteins were precleared by incubation with 5 mg/ml rabbit anti-mouse IgG for 1 hour at 4° C. and then addition of protein A sepharose for 30 min.
The supernatants were incubated with 2.5 μl of anti-human Fyn, 2 μl of anti-human Lyn, 3 μl of anti-human Lyk (N-terminal) or 3 μl of anti-Src antibody (UBI, Lake Placid, N.Y.) for 1 hour at 4° C. followed by 30 min with protein A-sepharose. The immune complexes were washed three times with lysis buffer, once with kinase buffer (20 mM HEPES, pH 7.0, 10 mM MnCl2 and 10 mM MgCl2) and resuspended in 30 μl of kinase buffer containing 1 mCi/ml [γ-^32P]ATP (3000 Ci/mmol; NEN, Boston, Mass.). The reaction was incubated for 10 min at 30° C. and terminated by the addition of 2× SDS sample buffer. The proteins were resolved in 10% SDS-polyacrylamide gels, dried and analyzed by autoradiography.
Immune complexes as prepared for autophosphorylation assays were washed three times with lysis buffer and once with kinase buffer. The beads were resuspended in 30 μl of kinase buffer containing 1 mCi/ml [γ-^32p]ATP and 3-5 mg of acid treated enolase (Sigma). The reaction was incubated for 10 min at 30° C. and terminated by the addition of 2× SDS sample buffer. The proteins were resolved by 10% SDS-PAGE. Equal loading of the enolase was determined by staining with Coomassie blue. The gels were then destained and analyzed by autoradiography. Radioactive bands were also excised from the gel and -quantitated by scintillation counting.

[16] = tested on: c-jun and EGR-1 gene expression; settings: irradiated HL-60 cells; cited from earlier work
[17] = tested on: tumor; settings: alone, in vivo; cited from earlier work
[18] = target: EGF-stimulated receptors (Homo sapiens, UniProt P00533); settings: intact cells, time and dose dependent; cited from earlier work
Sequence of EGF-stimulated receptors (P00533 25-1210): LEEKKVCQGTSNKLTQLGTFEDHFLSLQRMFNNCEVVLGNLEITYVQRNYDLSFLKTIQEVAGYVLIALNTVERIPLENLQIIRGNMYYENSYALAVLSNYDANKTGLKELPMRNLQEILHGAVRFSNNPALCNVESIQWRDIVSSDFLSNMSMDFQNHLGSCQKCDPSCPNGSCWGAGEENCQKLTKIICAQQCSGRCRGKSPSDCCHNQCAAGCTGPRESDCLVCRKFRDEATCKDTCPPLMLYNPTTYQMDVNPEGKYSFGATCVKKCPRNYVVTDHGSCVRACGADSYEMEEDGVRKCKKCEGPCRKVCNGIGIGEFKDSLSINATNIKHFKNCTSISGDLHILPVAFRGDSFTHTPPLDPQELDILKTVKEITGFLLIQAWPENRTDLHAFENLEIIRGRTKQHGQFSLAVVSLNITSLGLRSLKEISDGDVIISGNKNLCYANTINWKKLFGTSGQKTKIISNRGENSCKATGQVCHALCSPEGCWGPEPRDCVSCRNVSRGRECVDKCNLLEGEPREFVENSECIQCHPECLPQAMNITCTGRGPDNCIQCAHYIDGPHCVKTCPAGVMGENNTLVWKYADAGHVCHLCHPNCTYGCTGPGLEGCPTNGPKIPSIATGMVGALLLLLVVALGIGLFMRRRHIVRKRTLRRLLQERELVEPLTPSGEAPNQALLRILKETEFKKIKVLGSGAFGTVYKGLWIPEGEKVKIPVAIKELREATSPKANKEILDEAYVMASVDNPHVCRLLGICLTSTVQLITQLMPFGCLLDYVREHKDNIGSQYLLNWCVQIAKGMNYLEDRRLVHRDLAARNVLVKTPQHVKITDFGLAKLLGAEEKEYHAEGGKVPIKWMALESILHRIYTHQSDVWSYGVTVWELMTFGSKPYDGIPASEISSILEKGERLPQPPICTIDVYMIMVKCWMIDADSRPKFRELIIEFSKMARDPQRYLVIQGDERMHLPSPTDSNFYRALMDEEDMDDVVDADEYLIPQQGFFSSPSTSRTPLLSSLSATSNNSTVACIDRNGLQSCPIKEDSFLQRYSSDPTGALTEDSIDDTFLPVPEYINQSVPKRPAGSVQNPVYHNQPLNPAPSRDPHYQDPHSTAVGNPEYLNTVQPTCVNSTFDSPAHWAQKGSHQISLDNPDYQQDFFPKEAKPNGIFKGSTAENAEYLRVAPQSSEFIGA

[19] = tested on: pp110^gag-fes; settings: cited from earlier work
[20] = tested on: pp60^v-src; settings: cited from earlier work

Structure (SMILES): N#C/C(=C\c1cc(Cl)cc(Cl)c1)c1cccnc1 [RG-14620, (Z)-alpha-[(3,5-dichlorophenyl)methylene]-3-pyridylacetonitrile]
- tumor growth [1]: suppress
- cancer cell proliferation [2]: suppress

Structure (SMILES): COc1ccc(/C=C(\C#N)c2cccnc2)cc1OC [RG-13022]
- tumor growth [1]: suppress
- cancer cell proliferation [2]: suppress

Structure (SMILES): CO[C@@]12[C@H](COC(N)=O)C3=C(C(=O)C(C)=C(N)C3=O)N1C[C@@H]1N[C@@H]12 [MMC, Mitomycin C]
- p56/p53^lyn activity [3]: increases in p56/p53^lyn activity
- p34^cdc2 kinase activity (H1 histone phosphorylation) [4]: loss of kinase activity
- autophosphorylation of p59^fyn [5]: decreased
- phosphorylation of mutated cdc2 peptide (Tyr-15 to Phe-15) by anti-Lyn complexes [6]: little phosphorylation
- stimulation of cdc2 peptide phosphorylation by anti-Lyn immune complexes ([6]; versus control cells, cdc2 peptide amino acids 7 to 20): ~2 fold
- increase in enolase phosphorylation ([7]; 10^−5 M MMC, 30 min): 4.2 fold
- p56/p53^lyn activity (autophosphorylation of anti-Lyn immunoprecipitates) ([7]; 10^−5 M MMC, 1 h): increase
- increase in enolase phosphorylation ([7]; 10^−5 M MMC, 12 h): 4.1 fold
- p56/p53^lyn activity (phosphorylation of p56/p53^lyn and enolase) ([7]; 10^−6 and 10^−5 M MMC, 1 h): more pronounced stimulation
- p56/p53^lyn activity (phosphorylation of p56/p53^lyn and enolase) ([7]; 10^−8 and 10^−7 M MMC, 1 h): Increases
- interaction between p56/p53^lyn and p34^cdc2 [8]: induces an interaction
- tyrosine phosphorylation of p34^cdc2 (anti-P-Tyr reactivity of anti-cdc2 precipitates) [9]: increase in reactivity
- tyrosine phosphorylation of p56/p53^lyn (anti-P-Tyr immunoblot) [10]: increase in tyrosine phosphorylation
- kinase activity of anti-Lyn immune complexes incubated with MMC [11]: decrease in kinase activity
- pp60^c-src activity [12]: decrease

Structure (SMILES): N#CC(C#N)=Cc1ccc(O)c(O)c1 [AG18]
- pancreatic cancer cell growth [13]: inhibit pancreatic cancer cell growth

Structure (SMILES): N.N.[Cl][Pt][Cl] [cis-platinum]
- p56/p53^lyn kinase activity (phosphorylation of p56/p53^lyn and enolase) ([7]; 10^−5 M, 1 h): stimulation of the p56/p53^lyn kinase

Structure (SMILES): N#C/C(=C\c1ccc(O)c(O)c1)C(N)=S [T47]
- pancreatic cancer cell growth [13]: inhibit pancreatic cancer cell growth

Structure (SMILES): O=C(O)c1cc(N(Cc2ccccc2O)Cc2cc(O)ccc2O)ccc1O [Lavendustin A]
- inhibitory potency relative to erbstatin [14]: about 50 times

Structure (SMILES): CC(=O)N[C@@H](CS)C(=O)O [NAC, N-acetyl cysteine]
- effect on X-ray-induced p56/p53^lyn activity ([15]; 30 mM NAC 1 hour): little effect
- effect on induction of c-jun and EGR-1 gene expression [16]: completely blocks

Structure (SMILES): O=C1NC(=O)c2cc(Nc3ccccc3)c(Nc3ccccc3)cc21 [4,5-Dianilinophthalimide]
- antitumor activity [17]: in vivo antitumor activity

Structure (SMILES): CC(C)(C)c1cc(C=C(C#N)C#N)cc(C(C)(C)C)c1O [AG17]
- pancreatic cancer cell growth [13]: inhibit pancreatic cancer cell growth

Structure (SMILES): CO[C@H]1[C@@H](OC)C[C@H](C)[C@@H](OC)C2=CC(=O)C=C(NC(=O)/C(C)=C/C=C\[C@H](OC)[C@@H](OC(N)=O)/C(C)=C/[C@@H]1C)C2=O [herbimycin A]
- autophosphorylation of EGF-stimulated receptors [18]: inhibit the autophosphorylation
- effect of pretreatment on MMC-stimulated p56/p53^lyn activity [7]: completely blocks
- effect on X-ray-induced p56/p53^lyn activity ([15]; 10 μM inhibitor 1 hour): inhibited

Structure (SMILES): O=c1c(-c2ccc(O)cc2)coc2cc(O)cc(O)c12 [genistein]
- inhibitory activity against pp110^gag-fes [19]: specific inhibitory activity
- effect of pretreatment on MMC-stimulated p56/p53^lyn activity [7]: completely blocks
- inhibitory activity against pp60^v-src [20]: specific inhibitory activity
- effect on X-ray-induced p56/p53^lyn activity ([15]; 10 μM inhibitor 1 hour): inhibited

Structure (SMILES): OO [H2O2]
- phosphorylation of p56/p53^lyn or enolase ([15]; HL-60 cells treated with 50 mM H2O2): did not show a detectable increase

Structure (SMILES): Cc1c[nH]c2c1[C@@]13C[C@@H]1CN(C(=O)c1cc4cc(NC(=O)c5cc6ccccc6o5)ccc4[nH]1)C3=CC2=O [adozelesin]
- p56/p53^lyn and enolase phosphorylation ([7]; 2×10^−6 M, 1 h): stimulation of p56/p53^lyn and enolase phosphorylation
